PMC6684654 (Nature Communications, 2019)
≈ marks a conversion by molar mass, not a printed value. Values belong to the compound of their own block, whether it stands above or below them.

Columns and labels:
E. coli ATCC25922 [1] = experiment: MIC, broth microdilution; format: cell-based; conditions: Escherichia coli, ATCC25922; MHB, 5 × 10^5 CFU/mL, 16 h, 37 °C; read-out: MIC
Text: (§1) MIC values were identified through microdilution in sterilized 96-well polypropylene microtiter plates according to the broth microdilution guideline of the Clinical and Laboratory Standards Institute[30]. The test medium was Mueller–Hinton broth (MHB), and the strain concentrations were adjusted to 5 × 10^5 CFU/mL.

E. coli ATCC35218 = experiment: MIC, broth microdilution; format: cell-based; conditions: Escherichia coli, ATCC35218; MHB, 5 × 10^5 CFU/mL, 16 h, 37 °C; read-out: MIC
Text: as §1

K. pneumoniae ATCC13883 [2] = experiment: MIC, broth microdilution; format: cell-based; conditions: Klebsiella pneumoniae, ATCC13883; MHB, 5 × 10^5 CFU/mL, 16 h, 37 °C; read-out: MIC
Text: as §1

NDM-1 E. coli XJ141015 [3] = experiment: MIC, broth microdilution; format: cell-based; conditions: Escherichia coli; MHB, 5 × 10^5 CFU/mL, 16 h, 37 °C; read-out: MIC
Text: as §1

NDM-1 E. coli XJ141026 [4] = experiment: MIC, broth microdilution; format: cell-based; conditions: Escherichia coli; MHB, 5 × 10^5 CFU/mL, 16 h, 37 °C; read-out: MIC
Text: as §1

NDM-1 E. coli XJ141047 [5] = experiment: MIC, broth microdilution; format: cell-based; conditions: Escherichia coli; MHB, 5 × 10^5 CFU/mL, 16 h, 37 °C; read-out: MIC
Text: as §1

[6] = test system: NDM-1 K. pneumoniae XJ155017; experiment: MIC, broth microdilution; format: cell-based; conditions: Klebsiella pneumoniae; MHB, 5 × 10^5 CFU/mL, 16 h, 37 °C; read-out: MIC
Text: as §1

[7] = test system: NDM-1 K. pneumoniae XJ155018; experiment: MIC, broth microdilution; format: cell-based; conditions: Klebsiella pneumoniae; MHB, 5 × 10^5 CFU/mL, 16 h, 37 °C; read-out: MIC
Text: as §1

[8] = test system: NDM-1 K. pneumoniae XJ155019; experiment: MIC, broth microdilution; format: cell-based; conditions: Klebsiella pneumoniae; MHB, 5 × 10^5 CFU/mL, 16 h, 37 °C; read-out: MIC
Text: as §1

[9] = test system: NDM-1 K. pneumoniae XJ155020; experiment: MIC, broth microdilution; format: cell-based; conditions: Klebsiella pneumoniae; MHB, 5 × 10^5 CFU/mL, 16 h, 37 °C; read-out: MIC
Text: as §1

E. coli ATCC25922 [10] = experiment: Antibiotic susceptibility (MIC), automated identification system; format: cell-based; conditions: Supplementary Table 1
Text: (§2) Clinical isolate strains were identified and screened by the Phoenix 100 automated bacterial identification system to rapidly detect antimicrobial resistance. Total DNA was extracted by the TIANamp Bacteria DNA Kit according to the manufacturer’s protocol. The presence of blaNDM-1 was confirmed using a diagnostic kit for NDM-1 (Puruikang Bio Inc., Shenzhen, China) based on fluorescent quantitative polymerase chain reaction assay. According to the instruction, Ct values of less than 37 were considered positive.

K. pneumoniae ATCC13883 [11] = experiment: as above; format: cell-based; conditions: Supplementary Table 2
Text: as §2

NDM-1 E. coli XJ141015 [12] = experiment: as above; format: cell-based; conditions: Supplementary Table 1
Text: as §2

NDM-1 E. coli XJ141026 [13] = experiment: as above; format: cell-based; conditions: Supplementary Table 1
Text: as §2

NDM-1 E. coli XJ141047 [14] = experiment: as above; format: cell-based; conditions: Supplementary Table 1
Text: as §2

[15] = test system: NDM-1 K. pneumoniae XJ155017; experiment: as above; format: cell-based; conditions: Supplementary Table 2
Text: as §2

[16] = test system: NDM-1 K. pneumoniae XJ155018; experiment: as above; format: cell-based; conditions: Supplementary Table 2
Text: as §2

[17] = test system: NDM-1 K. pneumoniae XJ155019; experiment: as above; format: cell-based; conditions: Supplementary Table 2
Text: as §2

[18] = test system: NDM-1 K. pneumoniae XJ155020; experiment: as above; format: cell-based; conditions: Supplementary Table 2
Text: as §2

NDM-1 = NDM-1 (Klebsiella pneumoniae, UniProt C7C422); experiment: Zn2+ restoration assay; format: biochemical
Chain of NDM-1 (C7C422 20-270, looked up, natural form): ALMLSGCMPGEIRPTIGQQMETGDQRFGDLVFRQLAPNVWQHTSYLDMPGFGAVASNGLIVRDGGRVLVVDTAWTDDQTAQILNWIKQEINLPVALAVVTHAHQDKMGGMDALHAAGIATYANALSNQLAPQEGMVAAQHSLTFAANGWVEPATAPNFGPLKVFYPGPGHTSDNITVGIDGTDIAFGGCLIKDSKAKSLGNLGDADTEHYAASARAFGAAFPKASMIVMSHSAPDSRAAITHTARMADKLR
Method: After incubating for 20 min at 30 °C, 50 μL of the mixture was added to the 96-well plate. […] The absorbance at 300 nm was monitored for 30 min at 30 °C. Percent residual activity was calculated from the thanatin-free control.

Structure (SMILES): Cc1onc(-c2ccccc2)c1C(=O)N[C@@H]1C(=O)N2[C@@H]1SC(C)(C)[C@@H]2C(=O)O [Oxacillin]
MIC (E. coli ATCC25922 [1]): 64 µg/mL (≈ 159 µM)
MIC (E. coli ATCC35218): 256 µg/mL (≈ 638 µM)
MIC (K. pneumoniae ATCC13883 [2]): 64 µg/mL (≈ 159 µM)
MIC (NDM-1 E. coli XJ141015 [3]): > 256 µg/mL
MIC (NDM-1 E. coli XJ141026 [4]): > 256 µg/mL
MIC (NDM-1 E. coli XJ141047 [5]): > 256 µg/mL
MIC [6]: > 256 µg/mL
MIC [7]: > 256 µg/mL
MIC [8]: > 256 µg/mL
MIC [9]: > 256 µg/mL

MIC (E. coli ATCC25922 [1]): 2 µg/mL (≈ 3.86 µM)
MIC (E. coli ATCC35218): > 256 µg/mL
MIC (K. pneumoniae ATCC13883 [2]): 8 µg/mL (≈ 15.5 µM)
MIC (NDM-1 E. coli XJ141015 [3]): > 256 µg/mL
MIC (NDM-1 E. coli XJ141026 [4]): > 256 µg/mL
MIC (NDM-1 E. coli XJ141047 [5]): > 256 µg/mL
MIC [6]: > 256 µg/mL
MIC [7]: > 256 µg/mL
MIC [8]: > 256 µg/mL
MIC [9]: > 256 µg/mL
MIC (E. coli ATCC25922 [10]; Escherichia coli, ATCC25922): ≤ 4 µg/mL
susceptibility class (MIC) (E. coli ATCC25922 [10]): S
MIC (K. pneumoniae ATCC13883 [11]; Klebsiella pneumoniae, ATCC13883): 8 µg/mL (≈ 15.5 µM)
susceptibility class (MIC) (K. pneumoniae ATCC13883 [11]): S
MIC (NDM-1 E. coli XJ141015 [12]; Escherichia coli): > 64 µg/mL
susceptibility class (MIC) (NDM-1 E. coli XJ141015 [12]): R
MIC (NDM-1 E. coli XJ141026 [13]; Escherichia coli): > 64 µg/mL
susceptibility class (MIC) (NDM-1 E. coli XJ141026 [13]): R
MIC (NDM-1 E. coli XJ141047 [14]; Escherichia coli): > 64 µg/mL
susceptibility class (MIC) (NDM-1 E. coli XJ141047 [14]): R
MIC ([15]; Klebsiella pneumoniae): > 64 µg/mL
susceptibility class (MIC) [15]: R
MIC ([16]; Klebsiella pneumoniae): > 64 µg/mL
susceptibility class (MIC) [16]: R
MIC ([17]; Klebsiella pneumoniae): > 64 µg/mL
susceptibility class (MIC) [17]: R
MIC ([18]; Klebsiella pneumoniae): > 64 µg/mL
susceptibility class (MIC) [18]: R
Structure (SMILES): CCN1CCN(C(=O)N[C@@H](C(=O)N[C@@H]2C(=O)N3[C@@H]2SC(C)(C)[C@@H]3C(=O)O)c2ccccc2)C(=O)C1=O [Piperacillin]

Structure (SMILES): O=S(=O)([O-])[O-].[Zn+2] [ZnSO4]
NDM-1 residual activity % (NDM-1; ZnSO4 0.1 μM, replicate 1): 15.22%
NDM-1 residual activity % (NDM-1; ZnSO4 0.1 μM, replicate 2): 16.97%
NDM-1 residual activity % (NDM-1; ZnSO4 0.1 μM, replicate 3): 15.04%
NDM-1 residual activity % (NDM-1; ZnSO4 1 μM, replicate 1): 27.47%
NDM-1 residual activity % (NDM-1; ZnSO4 1 μM, replicate 2): 23.22%
NDM-1 residual activity % (NDM-1; ZnSO4 1 μM, replicate 3): 15.46%
NDM-1 residual activity % (NDM-1; ZnSO4 5 μM, replicate 1): 28.32%
NDM-1 residual activity % (NDM-1; ZnSO4 5 μM, replicate 2): 25.17%
NDM-1 residual activity % (NDM-1; ZnSO4 5 μM, replicate 3): 26.96%
NDM-1 residual activity % (NDM-1; ZnSO4 10 μM, replicate 1): 32.34%
NDM-1 residual activity % (NDM-1; ZnSO4 10 μM, replicate 2): 29.63%
NDM-1 residual activity % (NDM-1; ZnSO4 10 μM, replicate 3): 36.06%
NDM-1 residual activity % (NDM-1; ZnSO4 50 μM, replicate 1): 43.28%
NDM-1 residual activity % (NDM-1; ZnSO4 50 μM, replicate 2): 51.47%
NDM-1 residual activity % (NDM-1; ZnSO4 50 μM, replicate 3): 61.34%
NDM-1 residual activity % (NDM-1; ZnSO4 100 μM, replicate 1): 56.06%
NDM-1 residual activity % (NDM-1; ZnSO4 100 μM, replicate 2): 59.92%
NDM-1 residual activity % (NDM-1; ZnSO4 100 μM, replicate 3): 88.19%
NDM-1 residual activity % (NDM-1; ZnSO4 200 μM, replicate 1): 61.18%
NDM-1 residual activity % (NDM-1; ZnSO4 200 μM, replicate 2): 100.32%
NDM-1 residual activity % (NDM-1; ZnSO4 200 μM, replicate 3): 93.90%
NDM-1 residual activity % (NDM-1; ZnSO4 400 μM, replicate 1): 95.69%
NDM-1 residual activity % (NDM-1; ZnSO4 400 μM, replicate 2): 105.75%
NDM-1 residual activity % (NDM-1; ZnSO4 400 μM, replicate 3): 98.26%
NDM-1 residual activity % (NDM-1; ZnSO4 800 μM, replicate 1): 94.91%
NDM-1 residual activity % (NDM-1; ZnSO4 800 μM, replicate 2): 111.23%
NDM-1 residual activity % (NDM-1; ZnSO4 800 μM, replicate 3): 106.26%
